Reference: PMC5004831, “Molecular and biochemical characterization of carbonic anhydrases of Paracoccidioides” (Genetics and Molecular Biology, 2016)

Tests used:
[1] = molecular target: T1, rCA1 (CA1), beta-class carbonic anhydrase of Paracoccidioides (Paracoccidioides lutzii, UniProt C1H4M3); assay: CO2 hydration, electrometric (Wilbur-Anderson); type: biochemical; conditions: read-out: CA1- Residual Activity (%)
T1 construct: gene PAAG_05716; complete cDNA, 282 residues, GST fusion (pGEX-4T-3) from E. coli, GST cut by thrombin; 33 kDa
T1 sequence (C1H4M3 1-282): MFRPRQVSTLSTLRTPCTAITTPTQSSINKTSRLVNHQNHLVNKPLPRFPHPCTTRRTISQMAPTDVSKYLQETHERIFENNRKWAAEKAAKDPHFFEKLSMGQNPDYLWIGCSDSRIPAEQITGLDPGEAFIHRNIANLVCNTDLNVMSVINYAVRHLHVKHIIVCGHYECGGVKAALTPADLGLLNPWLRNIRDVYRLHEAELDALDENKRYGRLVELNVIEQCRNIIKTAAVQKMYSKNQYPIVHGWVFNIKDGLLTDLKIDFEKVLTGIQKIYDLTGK
Text: CO2 hydration, electrometric (Wilbur-Anderson) on rCA1 (CA1), beta-class carbonic anhydrase of Paracoccidioides

[2] = molecular target: T2, rCA4 (CA4), alpha-class carbonic anhydrase of Paracoccidioides (Paracoccidioides brasiliensis, UniProt B1PIT4); assay: CO2 hydration, electrometric (Wilbur-Anderson); type: biochemical; conditions: read-out: CA4- Residual Activity (%)
T2 construct: 32 kDa
T2 sequence (B1PIT4 1-301): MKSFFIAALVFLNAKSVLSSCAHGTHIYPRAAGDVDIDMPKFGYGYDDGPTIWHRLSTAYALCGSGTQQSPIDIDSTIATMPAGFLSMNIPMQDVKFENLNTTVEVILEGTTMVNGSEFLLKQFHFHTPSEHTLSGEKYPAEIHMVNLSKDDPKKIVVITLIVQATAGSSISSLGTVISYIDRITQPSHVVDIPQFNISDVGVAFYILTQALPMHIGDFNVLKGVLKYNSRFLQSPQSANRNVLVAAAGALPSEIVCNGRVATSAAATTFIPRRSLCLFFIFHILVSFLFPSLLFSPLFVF
Text: CO2 hydration, electrometric (Wilbur-Anderson) on rCA4 (CA4), alpha-class carbonic anhydrase of Paracoccidioides

SMILES	remaining activity at 25 µM [1] [%]	remaining activity at 25 µM [2] [%]
N=C(N)NCCC[C@H](N)C(=O)O [L-Arg]	130	132
N[C@@H](Cc1cnc[nH]1)C(=O)O [L-His]	142	152
NCCCC[C@H](N)C(=O)O [L-Lys]	138	140
N[C@@H](Cc1c[nH]c2ccccc12)C(=O)O [L-Trp]	162	158
